The subject of one series is CYPSS204A. Kind of series: Conversion reaction of substrates by Escherichia coli expression strain BP215. The class given is cell-based, Sphingomonas subterranea NBRC 16086. The following applies: strain BP215, 28° C., 5 hours. Here is the method: The temperature conditions applied during the PCR were 95° C./5 min, 30 cycles of (98° C./30 sec, 60° C./30 sec, and 68° C./2 min), and 68° C./10 min.
Analysis conditions: Using Chromolith speed rod RP18e (50×4.6 mm) column, 50%→100% CH3CN gradient (0 to 3 min) and 100% CH3CN (3 to 8 min) were used as a mobile phase, and detection was carried out at a flow rate of 2 ml/min using CAD™ (Charged Aerosol Detection) and MS.

For series [1], the system named is CYP204A1. The note with it: strain BP172, same reaction as Example 6 (28° C., 5 hours). As to the method:
Novosphingobium aromaticivorans (ATCC 700278) was inoculated into an L medium, and it was then cultured at 30° C. for 2 days. Thereafter, genomic DNA was extracted from the cell mass obtained in the same manner as that of Example 1. A fragment comprising a CYPSS204A1 gene and a ferredoxin gene located downstream thereof was amplified from the above-described genomic DNA by using a primer CYP-5F (SEQ ID NO: 9) and a primer CYP-6R (SEQ ID NO: 10) and also using La Taq polymerase (manufactured by Takara Bio INC.). The temperature conditions applied during this operation were 94° C./3 min, 30 cycles of (98° C./20 sec, 63° C./30 sec, and 68° C./2 min), and 72° C./5 min.
Escherichia coli BL21(DE3) was transformed with this plasmid, and the obtained cell strain was named as BP172.
The Escherichia coli expression strain BP215 was inoculated into 2 ml of an M9 mix medium (Na2HPO4: 0.68%, KH2PO4: 0.3%, NaCl: 0.05%, NH4C;: 0.01%, Casamino acid: 1%, D-Glucose: 0.4%, CaCl2: 0.1 mM, MgCl2: 1 mM, Thiamine: 0.002%, FeSO4: 0.1 mM, Carbenicillin: 0.005%), and it was then subjected to shaking culture at 30° C. for 17 hours, so as to obtain pre-culture solution. 0.25 ml of this pre-culture solution was inoculated into 25 ml of the main culture medium (Na2HPO4: 0.68%, KH2PO4: 0.3%, NaCl: 0.05%, NH4Cl: 0.01%, Casamino acid: 1%, CaCl2: 0.1 mM, MgCl2: 1 mM, Thiamine: 0.002%, FeSO4: 0.1 mM, Carbenicillin: 0.005%, Overnight Express™ solution: 7%, 5-Aminolevlic acid: 0.008%) using Overnight Express™ Autoinduction System (Novagen Cat. No. 71300-4), and it was then subjected to shaking culture at 25° C. for 24 hours. 5 ml of the obtained main culture solution was centrifuged (3500 rpm, 10 minutes) to obtain cell mass, and 1 ml of CV2 buffer (50 mM (pH) potassium phosphate buffer containing glycerol: 2%, carbenicillin: 0.005%, and isopropyl β-D-1-thiogalactopyranoside: 0.1 mM) was added to the obtained cell mass. Thereafter, 0.01 ml of the methanol solution of 1% 4-cholesten-3-one and 0.02 ml of an aqueous solution of 25% methyl-β-cyclodextrin were added to the mixed solution, and the obtained mixture was then shaken at 28° C. for 5 hours for the reaction. After completion of the reaction, 4 ml of methanol was added to the reaction solution, and they were then fully mixed. The obtained mixture was centrifuged, and the upper layer was then analyzed by HPLC.
As substrates, 4-cholesten-3-one, cholesterol, 7-dehydrocholesterol, ergosterol, 13-sitosterol, stigmasterol, campesterol, desmosterol, (20S)-20-hydroxycholest-4-en-3-one, (22R)-22-hydroxycholest-4-en-3-one, (20R,22R)-20,22-dihydroxycholest-4-en-3-one, and (20R,22S)-20,22-dihydroxycholest-4-en-3-one were used. Each substrate was subjected to the same reaction as that of Example 6, separately, and the generated product was then analyzed by HPLC.

Series [2] addresses T1, Sphingomonas subterranea NBRC16086 P450scc CYPSS204A (CYPSS), wild type, SEQ ID NO: 2 (Novosphingobium subterraneum, UniProt A0A0B8ZS99).
T1 sequence (A0A0B8ZS99 1-472): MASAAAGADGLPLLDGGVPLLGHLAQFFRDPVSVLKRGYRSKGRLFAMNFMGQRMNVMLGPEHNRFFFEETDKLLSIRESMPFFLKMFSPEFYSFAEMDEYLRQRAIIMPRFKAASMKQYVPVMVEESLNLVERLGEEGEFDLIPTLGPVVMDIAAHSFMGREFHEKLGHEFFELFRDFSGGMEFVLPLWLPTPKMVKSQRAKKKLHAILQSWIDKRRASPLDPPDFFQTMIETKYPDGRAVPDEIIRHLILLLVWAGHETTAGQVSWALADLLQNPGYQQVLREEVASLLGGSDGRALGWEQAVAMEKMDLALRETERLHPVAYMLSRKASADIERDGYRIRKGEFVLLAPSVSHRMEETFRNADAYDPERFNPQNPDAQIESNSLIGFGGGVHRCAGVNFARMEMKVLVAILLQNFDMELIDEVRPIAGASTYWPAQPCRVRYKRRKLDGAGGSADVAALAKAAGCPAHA
Kind of series: Kinetics analysis of CYPSS with 4-cholesten-3-one (conversion to progesterone, cell-free extract).

Series [3] concerns CYP204A1. Kind of series: Conversion of 4-cholesten-3-one to progesterone by Bacillus megaterium cell mass expressing the CYP204A1 gene. The following applies: Bacillus megaterium pXYL204CB cell suspension, 30° C., 24 hours.

Each structure is given as a SMILES string. “Also recorded” adds a separate entry of the source. Like-named read-outs stand apart in the source and are kept apart here.

Turning to `CC(C)CCC[C@@H](C)[C@H]1CC[C@H]2[C@@H]3CCC4=CC(=O)CC[C@]4(C)[C@H]3CC[C@]12C` [4-cholesten-3-one], the “accumulated amount of side-chain cleavage product” value in the series with CYPSS204A is 78.0 mg/L. Further, the added substrate remained entry in the series on CYPSS204A is “not detected”. The Conversion rate worked out at 78% with CYPSS204A (to progesterone, pregnenolone or 7-dehydropregnenolone); 84.0% in the series with CYP204A1 [1]; 84% with CYP204A1 [1] (listed as 4Chol). Further, the Vmax in series [2] (4-cholesten-3-one 0.1 to 500 μM, pH 7.5, 15° C., 60 minutes, Lineweaver-Burk plot) was 78.7 mmol/min/mol. The substrate inhibition entry in series [2] (4-cholesten-3-one, in words) was “hardly undergoes substrate inhibition; also recorded: substrate inhibition of CYPSS was lower than that of CYP204A1”. Besides, the “Vmax, times higher than that of CYP204A1” value in series [2] (compared with CYP204A1) is recorded as “approximately 1.7 times”. Also, the “Vmax, relative activity” value in series [2] (relative to CYP204A1 (1.00)) stood at 1.66. For the same molecule, the “decrease rate of the enzyme protein activity (substrate inhibition)” value in series [2] (substrate concentration increased from 10 μM to 100 μM, pH 7.5, 15° C.) is reported as 10%. The “conversion rate of 4-cholesten-3-one to progesterone” value in the series with CYP204A1 [3] is reported as 24.5%.
